{"source": "patent US7294715B2", "about": "“Aporphine and oxoaporphine compounds and pharmaceutical use thereof” (Lotus Pharmaceutical Co., Ltd., priority 2003, dated 2007)", "key": {"[1]": {"assay": "Hemodynamic effects (blood pressure, heart rate) in rats", "format": "in vivo, rat"}, "[2]": {"system": "Langendorff perfused rat hearts", "assay": "Coronary flow in Langendorff perfused rat hearts", "settings": "FIG. 3", "procedure": "Adult male Wistar rats weighing 275-325 g, were intraperitoneally anesthetized with sodium pentobarbital (50 mg·kg^−1) and given heparin (300 Ukg·kg^−1) by the same route. Hearts were rapidly excised and immersed in 37° C. perfusion medium. The aorta was cannulated and retrograde-perfused at 80 mmHg with Tyrode's solution containing 120 mM NaCl, 25 mM NaHCO3, 3 mM KCl, 1.2 mM NaH2PO4, 2.5 mM CaCl2, 1.2 mM MgCl2, and […] 5.5 mM glucose. The perfusate was equilibrated with 95% O2, 5% CO2 at 37° C. Perfusion pressure was monitored using a MLT844/D pressure transducer (Capto, Horten, Norway) connected to a PowerLab (ADInstruments, Castle Hill, Australia). The coronary effluent was collected for the measurement of coronary flow."}, "[3]": {"system": "reperfusion induced arrhythmia in rats", "assay": "Reperfusion induced arrhythmia in rats", "format": "in vivo, rat", "settings": "for Ventricular tachycardia Duration: vehicle 46.6 ± 17.5; for Ventricular tachycardia Incident (%): vehicle 100; for Ventricular fibrillation Duration: vehicle 124.2 ± 25.9", "procedure": "Opened-chest SD (Sprague-Dawley) anesthetized rats underwent myocardial ischemia by 5 min-occlusion of the left main coronary artery and followed by 30 min-reperfusion. During the myocardium reperfusion period, heart rate, blood pressure and EKG changes were recorded. Ventricular ectopic activity was evaluated according to the diagnostic criteria advocated by the Lambeth Convention. The incidences and durations of ventricular tachycardia and ventricular fibrillation were determined."}, "MCAO rats": {"system": "MCAO rats", "assay": "Middle cerebral artery occlusion (MCAO) cerebral ischemia lesions in rats", "format": "in vivo, rat", "source_text": "The same effects of preventing the ischemia-reperfusion damages with aporphine and oxoaporphine compounds also found in the other organs, such as brain. After Compound 16 or Compound 21, which is a compound of Formula B (where R1, R2, R5, R6 are OMe, R3, R4, R7 are H) was administrated to male Sprague Dawley rats, the effects of test compounds on the artery occlusive cerebral ischemia in the rats were monitored. First, permanent brain ischemia was induced by middle cerebral artery occlusion (MCAO) in the rats. At 0, 6, 24, 48, and 54 hours after the formation of middle cerebral artery occlusion (MCAO), Group I (i.e., the control group) animals were given the solvent (100% DMSO) (1 ml/kg, i.p.); Group II (i.e., the control group) animals were given the distilled water (D.W.) (1 ml/kg, i.p.);Group III animals (NCM-121) were given Compound 16 (1.5 mg/kg, i.p.); Group IV animals (NCM-124) were given Compound 21 (1.7 mg/kg, i.p); Group V animals were given MK-801 (0.3 mg/kg, i.p.), an antagonist of the N-methyl-D-aspartic acid (NMDA) receptor. There were ten rats in each group. Four days after the formation of MCAO, all the rats were sacrificed. Brain sections were made and stained with 2% cresol purple. The areas and volumes of cerebral ischemia lesions in each section were recorded."}, "[4]": {"settings": "iv infusion 0.5 ug/kg, vehicle 80"}, "[5]": {"settings": "iv infusion 5 ug/kg, vehicle 80"}}, "note": "Marks after values point to notes of the source that are not given here."}
{"smiles": "COc1cc2c(cc1OC)-c1c(OC)c(OC)cc3c1C(C2)N(CCOc1ccccc1OC)CC3", "note": "(centres unmarked) [Compound 16, N-[2-(2-methoxyphenoxyl)]ethylnorglaucine]", "values": [{"measurement": "duration of blood pressure decrease", "setting": "[1]", "result": "about 45 minutes"}, {"measurement": "effects on blood pressure", "setting": "[1]; 0.5 mg/kg to 50 mg/kg, FIG. 5A", "result": "no significant effects"}, {"measurement": "effects on heart rate", "setting": "[1]; 0.5 mg/kg to 50 mg/kg, FIG. 5B", "result": "no significant effects"}, {"measurement": "time to recovery of heart rates after drug application", "setting": "[1]; 50 mg/kg", "result": 45, "unit": "min"}, {"measurement": "heart rates after drug", "setting": "[1]; 50 mg/kg, from 361.5±9.3 bpm, p<0.05", "result": "295.4±16.8", "unit": "bpm"}, {"measurement": "heart rates, % of baseline values", "setting": "[1]; 50 mg/kg, p<0.05", "result": "81.5±2.8 % of baseline values"}, {"measurement": "mean blood pressure after drug", "setting": "[1]; at 3 minutes after drug administration, from 74.6±5.7 mmHg", "result": "62.9±2.2", "unit": "mmHg"}, {"measurement": "coronary blood flow", "setting": "[2]", "result": "increasing coronary blood flow"}, {"measurement": "Ventricular tachycardia Duration", "setting": "[3]; iv infusion 0.5 ug/kg", "result": "23.3 ± 4.8", "unit": "s"}, {"measurement": "Mortality (%)", "setting": "[3]; [4]", "result": 62, "unit": "%"}, {"measurement": "Ventricular fibrillation Incident (%)", "setting": "[3]; [4]", "result": 85, "unit": "%"}, {"measurement": "Ventricular tachycardia Incident (%)", "setting": "[3]; iv infusion 0.5 ug/kg", "result": 92, "unit": "%"}, {"measurement": "Ventricular fibrillation Duration", "setting": "[3]; iv infusion 0.5 ug/kg", "result": "111.5 ± 24.4", "unit": "s"}, {"measurement": "Ventricular tachycardia Duration", "setting": "[3]; iv infusion 5 ug/kg", "result": "27.9 ± 7.9", "unit": "s"}, {"measurement": "Mortality (%)", "setting": "[3]; [5]", "result": 46, "unit": "%"}, {"measurement": "Ventricular fibrillation Incident (%)", "setting": "[3]; [5]", "result": 82, "unit": "%"}, {"measurement": "Ventricular tachycardia Incident (%)", "setting": "[3]; iv infusion 5 ug/kg", "result": 91, "unit": "%"}, {"measurement": "Ventricular fibrillation Duration", "setting": "[3]; iv infusion 5 ug/kg", "result": "72.2 ± 22.9", "unit": "s"}, {"measurement": "Ventricular tachycardia Duration", "setting": "[3]; iv infusion 50 ug/kg", "result": "9.8 ± 8.8", "unit": "s"}, {"measurement": "Ventricular fibrillation Incident (%)", "setting": "[3]; iv infusion 50 ug/kg, vehicle 80", "result": 54, "unit": "%"}, {"measurement": "Mortality (%)", "setting": "[3]; iv infusion 50 ug/kg, vehicle 80, p < 0.05 vs vehicle", "result": "23* %"}, {"measurement": "Ventricular tachycardia Incident (%)", "setting": "[3]; iv infusion 50 ug/kg", "result": 85, "unit": "%"}, {"measurement": "Ventricular fibrillation Duration", "setting": "[3]; iv infusion 50 ug/kg", "result": "42.3 ± 18.6", "unit": "s"}, {"measurement": "Infarcted Volume (X ± SEM mm^3)", "setting": "MCAO rats; IP 1.5 mg/kg × 6, N=10, four days after MCAO, vehicle 100% DMSO 154.17 ± 16.69", "result": "60.14 ± 24.49* mm^3"}, {"measurement": "% Decrease in total volume of ischemic lesions", "setting": "MCAO rats; IP 1.5 mg/kg × 6, vs Group I vehicle (100% DMSO)", "result": 60.99, "unit": "%"}, {"measurement": "effects in reducing the areas and volumes of cerebral ischemia lesions as compared with MK-801", "setting": "MCAO rats; comparison in words", "result": "more significant effects"}]}
